Where a SMILES comes first, the peptide text is derived from it. Where no end group is shown, it is not given here. [ ]: non-standard residue; d: D form.
Columns and labels:
H1650 cells = type: cell-based
Procedure: IC50 (half maximal inhibitory concentration; μM) values in lung cancer cells. […] The residues marked in red/bold are D-isoforms of amino acids (SEQ ID NOS: 57, 48-54, 40-42 45 and 47 in order of appearance).
Molecular basis of MPS peptide and its potential for increasing nintedanib efficacy. […] A kinetic assay confirmed that this peptide binds PIP2 with a dissociation constant of 17.64 nM (FIG. 10B). As expected, a decrease of PIP3 pools in whole cell lysates of MPS-treated IPF fibroblasts was observed (FIG. 10C), supporting the notion that MPS peptide is able to inhibit AKT activation through trapping PIP2. In view of adverse effects of the current IPF therapeutic nintedanib^9, 10, there is an urgent clinical need to improve the efficacy of such treatment in IPF. Since the TGF-β receptor is not a direct target of nintedanib, targeting an element of TGF-β signaling in tandem with nintedanib administration circumvents the shortcomings of nintedanib monotherapy. […] Based on the above observations, it is assumed that TGF-β-directed phospho-MARCKS is a bypass mechanism of activating PI3K/AKT signaling (FIG. 11B); therefore, it seems reasonable that MARCKS inhibition by MPS treatment may improve nintedanib efficacy, permitting lower doses of nintedanib to be used. To this end, the possibility of a synergistic interaction between MPS and nintedanib in order to circumvent the shortcomings of nintedanib monotherapy was tested. […] Furthermore, the Chou and Talalay CI (combination index) method^25 was used to evaluate the therapeutic interactions between nintedanib and MPS peptide. […] Particularly, the values were lower than 1 at ED50, approximately 1 at ED75, and above 1 at ED90 (data not shown). Thus, the combination effect was dose-dependently correlated with the components, and therefore low dose nintedanib in combination with low dose of MPS presents a synergistic effect on cell proliferation. […] On the basis of the sequences of MPS peptide, the rearrangement of PIP2-binding sites in this peptide were designed and synthesized with the intention of enhancing the efficacy and stability of the MPS peptide. FIG. 13 lists the sequences of various MPS derivatives. In light of the cleavage sites of various proteases and PIP2 binding motifs, Applicant replaced some L-isoform amino acids with D-isoform and these peptides were named as MPS-12042 and MPS-22026. To further validate the efficacy of the above MPS derivatives, Applicant performed a dose-course analysis of H1650 cells undergoing each MPS derivative treatment.

IPF fibroblast cells = assay: cells; type: cell-based, human; conditions: Homo sapiens; IPF fibroblast cells, 72 hours; read-out: IC50 inhibiting IPF fibroblast proliferation
Procedure: FIG. 14: Comparison of MPS-12042 (SEQ ID NO: 45) versus know tyrosine kinase inhibitor (TKLs) on the treatment of IPF fibroblast cells. Both normal and IPF lung fibroblast cells were treated with various drugs. After 72 hours, cells were subjected to MTT assays and IC50 for each drug was determined.
Human primary fibroblast cells were obtained from airway tissues provided from the UC Davis Medical Hospital (Sacramento, Calif.) with consent. The protocol for human tissue procurement and usage were periodically reviewed and approved by the University Human Subject Research Review Committee. Primary fibroblast cell lines, IPF-1 and IPF-2 cells, were established from IPF patients. Cells were obtained from lung biopsies and the diagnosis of IPF was supported by patient history, physical examination, pulmonary function tests, and typical high-resolution chest computed tomography findings of IPF. […] All patients fulfilled the criteria for the diagnosis of IPF as established by the American Thoracic Society and European Respiratory Society. Non-fibrotic primary control adult human lung fibroblast lines, Normal-1 and Normal-2 cells were used. These lines were established from normal lung tissue or histologically normal lung tissue adjacent to carcinoid tumor. The IPF cell line, LL97A, was purchased from the American Type Culture Collection (ATCC) (Manassas, Va.). Lung fibroblast lines were cultured in high-glucose DMEM or RPMI-1640 medium with 10% fetal bovine serum and 1% penicillin-streptomycin at 37° C. in a humidified atmosphere of 5% CO2. Fibroblasts were used between passages 4 and 8. Cells were characterized as fibroblasts as described^26.
Cells were seeded onto 96-well plates at a density of 5-10×10^3 cells per well and cultured for the indicated treatment. Cell proliferation was evaluated using a MTS assay kit (Promega, Madison, Wis.). Twenty microliters of the combined MTS/PMS solution was added into each well, incubated for 3 hours at 37° C., and the absorbance was measured at 490 nm by using an ELISA reader. For Trypan blue test, cells were plated on 12-well plates and treated with the indicated chemotherapeutic agents. After 72 hours, both attached and detached cells were collected and then stained with 0.2% trypan blue (0.1% final concentration), and the number of trypan blue-positive and -negative cells was counted using a haemocytometer under low-power microscopy. For colony-forming assays, 200 cells were seeded in each well of six-well plates. IPF-1 or IPF-2 primary cells were treated with peptides at the indicated concentrations for 10 days. Colonies were stained using 0.001% crystal violet and the number of colonies with a diameter greater than 0.5 mm was counted under an inverted microscope.

primary IPF fibroblasts = assay: Combination of nintedanib and MPS peptide, cell viability by MTT, Chou and Talalay CI; type: cell-based, human; conditions: nintedanib 62.5-2000 nM and/or MPS 6.25-200 μM, 72 hours
Procedure: FIGS. 12A-12E: (FIGS. 12A-12B) Combinatorial effect of MPS peptide with nintedanib on fibroblasts isolated from two IPF patients. Cells were treated with various closes of nintedanib (62.5-2000 nM) and/or MPS peptide (6.25-200 μM) for 72 hours, respectively. After single ([…]) or combined ([…]) treatment, cell viability was determined by MTT assays. (FIG. 12C) The Chou and Talalay CI (combination index) method was utilized to evaluate the therapeutic interactions between nintedanib and MPS peptide using the Calcusyn software. Gray line, additive effect of the combination of MPS peptide and the drug is represented at CI=1. (FIG. 12D) Cells were individually treated with 1 μM nintedanib, 100 μM MPS peptide or combinations of 1 μM nintedanib and 100 μM MPS peptide. After 48 hours, cell viability was determined by the trypan blue exclusion assay (n+3; *, p<0.05). […] Molecular basis of MPS peptide and its potential for increasing nintedanib efficacy. […] A kinetic assay confirmed that this peptide binds PIP2 with a dissociation constant of 17.64 nM (FIG. 10B). As expected, a decrease of PIP3 pools in whole cell lysates of MPS-treated IPF fibroblasts was observed (FIG. 10C), supporting the notion that MPS peptide is able to inhibit AKT activation through trapping PIP2. […]

α-SMA and phospho-AKT = assay: Western blot of α-SMA and phospho-AKT in primary IPF fibroblasts; type: cell-based, human; conditions: nintedanib 1000 nM, 48 hours
Procedure: FIGS. 11A-11B: (FIG. 11A) Western blot analysis of α-SMA and phospho-AKT in primary IPF fibroblasts with nintedanib (1000 nM) and/or MPS (100 μM) for 48 hours. (FIG. 11B) A proposed model of activating the PI3K/AKT pathway after nintedanib treatment. An arrow: a direct interaction. Western blot analyses and the preparations of whole-cell lysates have been previously described^14, 16, 27 For whole cell lysates, cells were lysed in a lysis buffer (50 mM Tris-HCl (pH 7.4), 1% Triton X-100, 10% glycerol, 150 mM NaCl, 1 mM EDTA, 20 μg/ml leupeptin, 1 mM PMSF and 20 μg/ml aprotinin) and separated by SDS-PAGE. Immunoblotting was conducted with appropriate antibodies followed by chemiluminescent detection. For immunofluorescent staining, after an antigen retrieval step, tissue slides were reacted with antibodies against FITC-labeled α-SMA and TRITC-conjugated phospho-MARCKS, and nuclei were demarcated with DAPI staining. The cells were mounted onto slides and visualized using fluorescence microscopy (model Axiovert 100; Carl Zeiss, Oberkochen, Germany) or a Zeiss LSM510 laser-scanning confocal microscope image system.

Compound | IC50 (H1650 cells) [µM] | further results
KKKKKRFSFKASFKLSGFSFKKNKK [MPS-11011] | 29 | 
KKKKKAFSFKKSFKLSGFSFKKNKK [MPS-11006] | 79 | 
Ac-KKKKKRFSFKKSFKLSGFSFKKNKK-NH2 [MPS-11200] | 78 | 
FSFGSFSLKKFSFRKKKNKK [MPS-21010] | 83 | 
KKKKKRFSFAKSFKLSGFSFKKNKK [MPS-11010] | 73 | 
KKAKKRFSFKKSFKLSGFSFKKNKK [MPS-11003] | 85 | 
COC(=O)c1ccc2c(c1)NC(=O)/C2=C(\Nc1ccc(N(C)C(=O)CN2CCN(C)CC2)cc1)c1ccccc1 [nintedanib, reference compound] |  | IC50 (IPF fibroblast cells): 13.8 to 15.9 µM; Cell viability (primary IPF fibroblasts): decreased; phospho-AKT (α-SMA and phospho-AKT): no change; α-SMA expression (α-SMA and phospho-AKT): increase
KKKKKRFSFKKSFKLSGFSFKANKK [MPS-11022] | 83 | 
AKKKKRFSFKKSFKLSGFSFKKNKK [MPS-11001] | 85 | 
CC(C)C[C@@H](NC(=O)[C@@H](C)NC(=O)[C@@H](Cc1ccccc1)NC(=O)[C@@H](C)NC(=O)CNC(=O)[C@@H](Cc1ccccc1)NC(=O)[C@H](C)NC(=O)[C@@H](Cc1ccccc1)NC(=O)[C@H](CCCCN)NC(=O)[C@H](CCCCN)NC(=O)[C@H](CCCCN)NC(=O)[C@H](CCCCN)NC(=O)[C@@H](N)CCCCN)C(=O)N[C@@H](CCCCN)C(=O)N[C@H](CCCCN)C(=O)N[C@H](Cc1ccccc1)C(=O)N[C@@H](C)C(=O)N[C@H](Cc1ccccc1)C(=O)N[C@H](CCCNC(=N)N)C(=O)N[C@H](CCCCN)C(=O)N[C@@H](CCCCN)C(=O)N[C@@H](CCCCN)C(=O)N[C@@H](CC(N)=O)C(=O)N[C@H](CCCCN)C(=O)N[C@@H](CCCCN)C(=O)O [MPS-22026] (H-KKKKK[dF]A[dF]G[dA][dF][dA][dL]K[dK][dF]A[dF][dR][dK]KKN[dK]K-OH; N-terminus and C-terminus assumed) | 11 | 
KKKKFSFGSFSLKKFSFRKKKNKK [MPS-21020] | 64 | 
KKKKFAFGAFALKKFAFRKKKNKK [MPS-21026] | 49 | 

Source: patent US20220267390A1, “MPS MODIFIED PEPTIDES AND USE THEREOF” (The Regents of the University of California, priority 2019, published 2022)
